Columns and labels:
[1] = tested on: postmenopausal women (cataracts); assay: Phase 3 placebo-controlled clinical trial: cataract treatment-emergent signs and symptoms (TESS) events; type: in vivo, human
Experimental: A phase 3, multicenter, double-blind, placebo-controlled, randomized clinical trial was conducted. The trial included 7705 women (mean age 67 years old), who were an average of 19 years postmenopausal. These patients were randomly assigned to the following treatment protocol: raloxifene hydrochloride at 60 mg per day via oral administration, raloxifene at 120 mg per day, or placebo. The study was conducted for a period of 48 months. As a portion of the patient's overall evaluation, various clinical tests and parameters were measured at periodic intervals.
The following tables provide summaries of select cataract treatment-emergent signs and symptoms (“TESS”) events for various patient populations at the thirty-six and the forty-eight month mark of the clinical trial.

endometrium / uterus = conditions: clinical studies in women; cited from earlier work
[2] = tested on: chloride channels in the lens; conditions: organ culture, clinically relevant concentrations; cited from earlier work
[3] = All Randomized Patients, 36-Month Data, Rlx60 (60 mg per day oral), N = 2557
[4] = All Randomized Patients, 36-Month Data, Rlx120 (120 mg per day), N = 2572
[5] = All Randomized Patients, 48-Month Data, Rlx60 (60 mg per day oral), N = 2557
[6] = All Randomized Patients, 48-Month Data, Rlx120 (120 mg per day), N = 2572
[7] = Patients Not Reporting a Cataract-Related Current Condition at Baseline, 36-Month Data, Rlx60 (60 mg per day oral), N = 2394
[8] = Patients Not Reporting a Cataract-Related Current Condition at Baseline, 36-Month Data, Rlx120 (120 mg per day), N = 2418
[9] = Patients Not Reporting a Cataract-Related Current Condition at Baseline, 48-Month Data, Rlx60 (60 mg per day oral), N = 2385
[10] = Patients Not Reporting a Cataract-Related Current Condition at Baseline, 48-Month Data, Rlx120 (120 mg per day), N = 2408
[11] = Patients Reporting a Cataract-Related Current Condition at Baseline, 36-Month Data, Rlx60 (60 mg per day oral), N = 163
[12] = Patients Reporting a Cataract-Related Current Condition at Baseline, 36-Month Data, Rlx120 (120 mg per day), N = 154
[13] = Patients Reporting a Cataract-Related Current Condition at Baseline, 48-Month Data, Rlx60 (60 mg per day oral), N = 172
[14] = Patients Reporting a Cataract-Related Current Condition at Baseline, 48-Month Data, Rlx120 (120 mg per day), N = 164

## Cl.O=C(c1ccc(OCCN2CCCCC2)cc1)c1c(-c2ccc(O)cc2)sc2cc(O)ccc12 [Rlx, [2-(4-hydroxyphenyl)-6-hydroxybenzo[b]thie-3-yl][4-[2-(1-piperidenyl)ethoxy]phenyl]methanone hydrochloride]
[1]; 120 mg per day vs 60 mg per day vs placebo
  Dose dependence of the trend in cataract events: dose dependent
[1]; 7705 postmenopausal women, 60 or 120 mg per day, 48 months
  Risk of cataracts (adverse events relating to cataracts) as compared to placebo: trend toward decreasing risk of cataracts
[1]; [3]
  "Cataract Specified" event, number of patients: 92
  "Cataract Specified" event, percent of patients: 3.6%
  Any Cataract-related event, number of patients: 105
  Any Cataract-related event, percent of patients: 4.1%
  Surgery for cataract, number of patients: 60
  Surgery for cataract, percent of patients: 2.3%
[1]; [4]
  "Cataract Specified" event, number of patients: 82
  "Cataract Specified" event, percent of patients: 3.2%
  Any Cataract-related event, number of patients: 101
  Any Cataract-related event, percent of patients: 3.9%
  Surgery for cataract, number of patients: 60
  Surgery for cataract, percent of patients: 2.3%
[1]; [5]
  "Cataract Specified" event, number of patients: 135
  "Cataract Specified" event, percent of patients: 5.3%
  Any Cataract-related event, number of patients: 151
  Any Cataract-related event, percent of patients: 5.9%
  Surgery for cataract, number of patients: 85
  Surgery for cataract, percent of patients: 3.3%
[1]; [6]
  "Cataract Specified" event, number of patients: 122
  "Cataract Specified" event, percent of patients: 4.7%
  Any Cataract-related event, number of patients: 140
  Any Cataract-related event, percent of patients: 5.4%
  Surgery for cataract, number of patients: 78
  Surgery for cataract, percent of patients: 3.0%
[1]; [7]
  Any Cataract-related event, number of patients: 80
  Any Cataract-related event, percent of patients: 3.3%
[1]; [8]
  Any Cataract-related event, number of patients: 83
  Any Cataract-related event, percent of patients: 3.4%
[1]; [9]
  Any Cataract-related event, number of patients: 120
  Any Cataract-related event, percent of patients: 5.0%
[1]; [10]
  Any Cataract-related event, number of patients: 115
  Any Cataract-related event, percent of patients: 4.8%
[1]; [11]
  Any Cataract-related event, number of patients: 25
  Any Cataract-related event, percent of patients: 15.3%
[1]; [12]
  Any Cataract-related event, number of patients: 18
  Any Cataract-related event, percent of patients: 11.7%
[1]; [13]
  Any Cataract-related event, number of patients: 31
  Any Cataract-related event, percent of patients: 18.0%
[1]; [14]
  Any Cataract-related event, number of patients: 25
  Any Cataract-related event, percent of patients: 15.2%
Endometrium / uterus
  Endometrial cancer: has not been associated with endometrial cancer
  Endometrial stimulation: not associated with endometrial stimulation

## CC/C(=C(\c1ccccc1)c1ccc(OCCN(C)C)cc1)c1ccccc1 [tamoxifen]
[2]
  Effect on chloride channels: blocked chloride channels
